A short description of one series: in vitro. The conditions noted are these: rat, liver microsomes.
The nature of series [1]: Cytotoxicity against human HT-29 cells expressing B-Raf mutant.
In series [2] the test system is WM-266-4 (Homo sapiens). Description: Cytotoxicity against human WM266.4 cells expressing B-Raf mutant.
For series [3], the target named is Serine/threonine-protein kinase B-raf (Homo sapiens, UniProt P15056). In words: Inhibition of human recombinant B-Raf expressed in Sf9 cells.
Chain of Serine/threonine-protein kinase B-raf (P15056 whole entry): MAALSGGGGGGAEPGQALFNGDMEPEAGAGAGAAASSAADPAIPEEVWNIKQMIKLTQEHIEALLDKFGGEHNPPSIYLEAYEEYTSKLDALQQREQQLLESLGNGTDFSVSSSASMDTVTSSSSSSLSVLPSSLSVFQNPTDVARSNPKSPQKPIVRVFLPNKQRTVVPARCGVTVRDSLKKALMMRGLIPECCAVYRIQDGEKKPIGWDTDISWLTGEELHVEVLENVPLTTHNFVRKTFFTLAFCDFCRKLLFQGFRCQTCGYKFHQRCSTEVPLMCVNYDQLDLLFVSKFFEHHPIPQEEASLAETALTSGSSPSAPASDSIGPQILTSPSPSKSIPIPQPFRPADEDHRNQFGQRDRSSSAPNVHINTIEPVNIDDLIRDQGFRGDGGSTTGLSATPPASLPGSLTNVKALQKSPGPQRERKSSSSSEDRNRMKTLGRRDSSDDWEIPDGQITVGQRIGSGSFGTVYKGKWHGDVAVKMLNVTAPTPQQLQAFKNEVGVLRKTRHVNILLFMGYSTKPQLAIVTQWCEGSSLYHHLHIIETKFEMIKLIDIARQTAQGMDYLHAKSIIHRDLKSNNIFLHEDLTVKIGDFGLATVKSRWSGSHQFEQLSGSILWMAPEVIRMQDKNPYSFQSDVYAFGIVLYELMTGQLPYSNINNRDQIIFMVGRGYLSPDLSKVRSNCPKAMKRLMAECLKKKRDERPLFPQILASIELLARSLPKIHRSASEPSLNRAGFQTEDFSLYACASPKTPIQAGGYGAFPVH
Series [4] has as its system WM-266-4 (Homo sapiens). Description: Cytotoxicity against human WM-266-4 cells expressing B-Raf mutant.
For series [5], the target named is Protein kinase C alpha type (Homo sapiens, UniProt P17252). Description: Inhibition of PKCalpha.
Series [6] addresses Mitogen-activated protein kinase 8 (Homo sapiens, UniProt P45983). Description: Inhibition of JNK1.
Series [7] concerns the target MAP kinase-activated protein kinase 2 (Homo sapiens, UniProt P49137). Description: Inhibition of MK2.
The target of series [8] is Proto-oncogene tyrosine-protein kinase Src (Homo sapiens, UniProt P12931). In words: Inhibition of SRC.
Chain of Proto-oncogene tyrosine-protein kinase Src (P12931 2-536 limits assumed): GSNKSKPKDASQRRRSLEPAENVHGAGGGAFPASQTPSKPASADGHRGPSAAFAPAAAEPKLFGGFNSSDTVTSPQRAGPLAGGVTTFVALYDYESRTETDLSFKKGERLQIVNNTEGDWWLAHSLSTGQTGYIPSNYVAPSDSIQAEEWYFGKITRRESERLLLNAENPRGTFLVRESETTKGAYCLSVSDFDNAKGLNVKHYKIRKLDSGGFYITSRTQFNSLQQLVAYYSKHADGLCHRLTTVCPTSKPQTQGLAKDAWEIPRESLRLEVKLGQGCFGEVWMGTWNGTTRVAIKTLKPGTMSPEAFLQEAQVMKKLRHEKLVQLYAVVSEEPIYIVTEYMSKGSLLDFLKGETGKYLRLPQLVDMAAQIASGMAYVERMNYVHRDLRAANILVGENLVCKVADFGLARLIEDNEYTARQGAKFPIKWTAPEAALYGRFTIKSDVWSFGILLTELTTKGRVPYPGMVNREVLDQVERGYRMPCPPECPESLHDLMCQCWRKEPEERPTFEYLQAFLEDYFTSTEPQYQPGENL
Series [9] has as its target T1, Inhibitor of nuclear factor kappa-B kinase subunit beta (Homo sapiens, UniProt O14920).
T1 sequence (O14920 whole entry): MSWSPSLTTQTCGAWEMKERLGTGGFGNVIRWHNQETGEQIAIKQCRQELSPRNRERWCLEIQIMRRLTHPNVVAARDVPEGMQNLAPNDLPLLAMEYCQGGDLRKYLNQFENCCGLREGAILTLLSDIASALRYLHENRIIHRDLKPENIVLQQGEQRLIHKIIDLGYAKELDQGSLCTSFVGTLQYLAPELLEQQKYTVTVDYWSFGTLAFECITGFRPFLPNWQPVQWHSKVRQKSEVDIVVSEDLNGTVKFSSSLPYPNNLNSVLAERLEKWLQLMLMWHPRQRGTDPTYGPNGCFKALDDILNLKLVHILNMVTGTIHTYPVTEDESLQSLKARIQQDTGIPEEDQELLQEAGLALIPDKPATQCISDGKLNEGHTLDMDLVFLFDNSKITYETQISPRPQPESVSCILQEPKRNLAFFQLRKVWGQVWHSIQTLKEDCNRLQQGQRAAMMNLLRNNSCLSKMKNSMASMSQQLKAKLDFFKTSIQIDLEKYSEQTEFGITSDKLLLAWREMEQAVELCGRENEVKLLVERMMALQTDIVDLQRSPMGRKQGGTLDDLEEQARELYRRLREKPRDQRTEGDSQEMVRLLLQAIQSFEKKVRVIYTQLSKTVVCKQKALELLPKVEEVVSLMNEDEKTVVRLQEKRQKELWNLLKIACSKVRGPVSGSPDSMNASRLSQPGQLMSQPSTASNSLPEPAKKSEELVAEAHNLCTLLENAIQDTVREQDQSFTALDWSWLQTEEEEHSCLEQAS
Description: Inhibition of IKK-beta.

The target of series [10] is T2, Dual specificity mitogen-activated protein kinase kinase 6 (Homo sapiens, UniProt P52564).
T2 sequence (P52564 whole entry): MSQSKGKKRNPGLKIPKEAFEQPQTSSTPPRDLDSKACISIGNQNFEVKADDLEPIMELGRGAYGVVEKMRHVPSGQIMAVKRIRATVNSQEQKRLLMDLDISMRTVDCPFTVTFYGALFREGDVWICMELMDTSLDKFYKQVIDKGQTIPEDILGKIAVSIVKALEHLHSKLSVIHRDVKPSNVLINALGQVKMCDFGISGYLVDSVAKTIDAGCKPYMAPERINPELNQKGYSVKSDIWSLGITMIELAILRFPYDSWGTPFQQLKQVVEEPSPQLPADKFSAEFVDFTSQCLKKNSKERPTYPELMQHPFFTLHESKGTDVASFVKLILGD
In words: Inhibition of MKK6.

The target in series [11] is Serine/threonine-protein kinase PLK1 (Homo sapiens, UniProt P53350). Description: Inhibition of PLK1.
Chain of Serine/threonine-protein kinase PLK1 (P53350 whole entry): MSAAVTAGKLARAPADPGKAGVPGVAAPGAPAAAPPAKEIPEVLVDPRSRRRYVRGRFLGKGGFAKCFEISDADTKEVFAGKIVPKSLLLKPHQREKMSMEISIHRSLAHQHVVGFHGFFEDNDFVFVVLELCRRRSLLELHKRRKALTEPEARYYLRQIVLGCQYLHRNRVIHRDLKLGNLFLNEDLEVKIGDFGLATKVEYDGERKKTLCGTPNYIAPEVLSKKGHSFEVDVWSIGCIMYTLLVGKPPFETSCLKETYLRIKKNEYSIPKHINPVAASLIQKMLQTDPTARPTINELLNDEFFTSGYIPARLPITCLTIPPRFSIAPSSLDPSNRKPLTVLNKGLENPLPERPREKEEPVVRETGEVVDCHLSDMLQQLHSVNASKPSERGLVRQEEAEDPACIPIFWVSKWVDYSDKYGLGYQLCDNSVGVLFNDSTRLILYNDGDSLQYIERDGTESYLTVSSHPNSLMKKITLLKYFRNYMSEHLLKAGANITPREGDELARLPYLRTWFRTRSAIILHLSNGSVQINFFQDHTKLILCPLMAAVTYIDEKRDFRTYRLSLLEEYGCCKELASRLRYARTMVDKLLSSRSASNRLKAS
For series [12], the target named is Cyclin-dependent kinase 2 (Homo sapiens, UniProt P24941). In words: Inhibition of CDK2.
Series [13] has as its target Phosphatidylinositol 4,5-bisphosphate 3-kinase catalytic subunit alpha isoform (Homo sapiens, UniProt P42336). In words: Inhibition of PI3Kalpha.
The target of series [14] is Ribosomal protein S6 kinase beta-1 (Homo sapiens, UniProt P23443). Description: Inhibition of p70S6K.
Chain of Ribosomal protein S6 kinase beta-1 (P23443 whole entry): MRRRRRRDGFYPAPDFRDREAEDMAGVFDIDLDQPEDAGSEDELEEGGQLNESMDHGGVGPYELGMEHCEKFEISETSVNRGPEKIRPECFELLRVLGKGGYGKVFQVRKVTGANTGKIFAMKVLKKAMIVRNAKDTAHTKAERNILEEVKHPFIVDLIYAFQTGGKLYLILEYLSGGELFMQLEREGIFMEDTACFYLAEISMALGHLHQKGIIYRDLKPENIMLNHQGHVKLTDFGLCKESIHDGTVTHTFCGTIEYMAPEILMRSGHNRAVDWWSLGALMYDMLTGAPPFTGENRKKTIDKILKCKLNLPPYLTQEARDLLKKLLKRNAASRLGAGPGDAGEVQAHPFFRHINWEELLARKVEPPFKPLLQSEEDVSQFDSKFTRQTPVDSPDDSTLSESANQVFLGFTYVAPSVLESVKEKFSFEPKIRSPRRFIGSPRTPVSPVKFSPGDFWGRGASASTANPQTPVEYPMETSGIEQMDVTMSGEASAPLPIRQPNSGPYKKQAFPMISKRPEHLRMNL
Series [15] can be described thus: Inhibition of CAMK2.
Series [16] has as its target Mitogen-activated protein kinase 14 (Homo sapiens, UniProt Q16539). Description: Inhibition of p38alpha.
The nature of series [17]: Inhibition of PKA.
Series [18] concerns the target Cyclin-dependent kinase 4 (Homo sapiens, UniProt P11802). Description: Inhibition of CDK4.

Chain of Cyclin-dependent kinase 4 (P11802 whole entry): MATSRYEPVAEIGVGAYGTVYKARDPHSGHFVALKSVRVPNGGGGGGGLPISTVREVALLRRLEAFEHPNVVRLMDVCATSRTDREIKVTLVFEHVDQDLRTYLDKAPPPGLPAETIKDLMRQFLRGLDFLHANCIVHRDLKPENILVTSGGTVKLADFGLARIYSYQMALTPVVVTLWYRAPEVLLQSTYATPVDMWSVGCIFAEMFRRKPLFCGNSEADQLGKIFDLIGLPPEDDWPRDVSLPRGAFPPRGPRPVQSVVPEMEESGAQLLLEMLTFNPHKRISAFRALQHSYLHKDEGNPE
Chain of Mitogen-activated protein kinase 14 (Q16539 whole entry): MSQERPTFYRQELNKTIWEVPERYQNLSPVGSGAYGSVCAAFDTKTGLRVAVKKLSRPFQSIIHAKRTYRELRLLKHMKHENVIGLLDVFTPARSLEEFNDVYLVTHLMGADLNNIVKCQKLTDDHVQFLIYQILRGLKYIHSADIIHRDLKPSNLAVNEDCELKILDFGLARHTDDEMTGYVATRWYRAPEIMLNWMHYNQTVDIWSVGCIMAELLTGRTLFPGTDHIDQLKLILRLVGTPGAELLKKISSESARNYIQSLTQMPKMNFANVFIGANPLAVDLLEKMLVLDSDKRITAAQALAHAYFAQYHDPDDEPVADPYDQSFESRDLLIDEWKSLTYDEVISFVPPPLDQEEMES
Chain of Phosphatidylinositol 4,5-bisphosphate 3-kinase catalytic subunit alpha isoform (P42336 whole entry, canonical isoform): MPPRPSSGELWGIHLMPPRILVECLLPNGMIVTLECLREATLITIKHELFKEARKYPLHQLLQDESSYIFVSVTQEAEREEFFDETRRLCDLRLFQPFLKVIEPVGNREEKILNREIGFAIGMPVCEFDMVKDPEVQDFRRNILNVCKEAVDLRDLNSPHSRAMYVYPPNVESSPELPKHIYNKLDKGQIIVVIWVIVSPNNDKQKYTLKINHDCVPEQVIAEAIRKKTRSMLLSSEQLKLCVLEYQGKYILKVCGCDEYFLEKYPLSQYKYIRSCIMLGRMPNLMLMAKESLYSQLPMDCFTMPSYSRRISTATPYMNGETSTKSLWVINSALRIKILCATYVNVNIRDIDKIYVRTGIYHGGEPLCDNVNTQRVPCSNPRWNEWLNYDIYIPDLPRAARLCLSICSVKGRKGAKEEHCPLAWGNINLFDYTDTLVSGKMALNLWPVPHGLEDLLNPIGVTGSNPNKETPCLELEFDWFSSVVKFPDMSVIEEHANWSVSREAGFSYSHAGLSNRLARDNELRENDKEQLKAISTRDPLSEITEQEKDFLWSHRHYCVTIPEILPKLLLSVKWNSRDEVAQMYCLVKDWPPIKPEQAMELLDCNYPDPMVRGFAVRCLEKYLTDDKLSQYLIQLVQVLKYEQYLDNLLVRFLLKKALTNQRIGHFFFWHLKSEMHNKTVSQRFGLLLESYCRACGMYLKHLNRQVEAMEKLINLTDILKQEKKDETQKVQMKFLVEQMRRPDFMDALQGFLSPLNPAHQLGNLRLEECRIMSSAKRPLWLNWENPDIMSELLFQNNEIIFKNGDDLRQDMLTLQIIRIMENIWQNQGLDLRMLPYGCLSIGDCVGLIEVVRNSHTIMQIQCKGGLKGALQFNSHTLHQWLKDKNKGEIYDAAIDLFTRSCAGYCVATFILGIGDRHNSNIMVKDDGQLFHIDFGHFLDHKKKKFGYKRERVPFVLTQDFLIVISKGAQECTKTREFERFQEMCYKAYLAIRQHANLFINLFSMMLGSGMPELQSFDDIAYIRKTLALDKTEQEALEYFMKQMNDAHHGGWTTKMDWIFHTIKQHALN
Chain of MAP kinase-activated protein kinase 2 (P49137 whole entry): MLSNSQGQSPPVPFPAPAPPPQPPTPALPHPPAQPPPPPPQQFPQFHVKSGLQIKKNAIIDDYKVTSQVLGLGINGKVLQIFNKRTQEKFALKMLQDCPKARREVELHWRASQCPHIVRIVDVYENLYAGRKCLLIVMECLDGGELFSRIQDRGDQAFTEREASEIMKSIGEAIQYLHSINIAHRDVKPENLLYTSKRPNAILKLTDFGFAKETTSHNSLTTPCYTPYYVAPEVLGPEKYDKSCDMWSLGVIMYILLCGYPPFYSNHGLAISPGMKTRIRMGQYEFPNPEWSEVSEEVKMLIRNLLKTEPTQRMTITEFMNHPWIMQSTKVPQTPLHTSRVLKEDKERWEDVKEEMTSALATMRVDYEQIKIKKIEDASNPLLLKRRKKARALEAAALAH
Chain of Mitogen-activated protein kinase 8 (P45983 whole entry): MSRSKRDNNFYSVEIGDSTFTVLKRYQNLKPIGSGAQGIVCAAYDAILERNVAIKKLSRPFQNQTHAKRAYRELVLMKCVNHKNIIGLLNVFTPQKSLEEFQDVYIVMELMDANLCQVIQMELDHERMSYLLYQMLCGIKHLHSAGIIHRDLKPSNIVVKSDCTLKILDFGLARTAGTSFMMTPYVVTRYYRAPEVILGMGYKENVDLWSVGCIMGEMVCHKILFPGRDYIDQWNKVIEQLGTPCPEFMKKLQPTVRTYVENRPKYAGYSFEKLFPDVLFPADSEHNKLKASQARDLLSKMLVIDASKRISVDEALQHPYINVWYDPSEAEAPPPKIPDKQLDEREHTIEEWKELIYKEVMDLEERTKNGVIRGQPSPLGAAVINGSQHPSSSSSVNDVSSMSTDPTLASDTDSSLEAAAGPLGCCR

Compound `O=C(Nc1cccc(-c2ccnc3c(-c4cnn(CCN5CCCC5)c4)cnn23)c1)c1cccc(C(F)(F)F)c1` displayed a half-life in “in vitro” of 26 min. Moreover, the values for the IC50 (in [1]; with WM-266-4 (Homo sapiens) [2]) were 2800 nM and 3300 nM, respectively.
`CN(C)Cc1cccc(-c2cnn3c(-c4cccc(NC(=O)c5cccc(C(F)(F)F)c5)c4)ccnc23)c1`: in series [1], the IC50 was 800 nM.
Consider `CN(C)Cc1ccccc1-c1cnn2c(-c3cccc(NC(=O)c4cccc(C(F)(F)F)c4)c3)ccnc12`, for which the IC50 (in series [1]; in the series with WM-266-4 (Homo sapiens) [2]) was 2900 nM throughout.
For `COc1ccc(NC(=O)c2cccc(C(F)(F)F)c2)cc1-c1ccnc2c(-c3cn[nH]c3)cnn12`, the values for the IC50 in series [3] and in series [1] were 98 nM and 2900 nM, respectively.
In the case of `CN(C)CC(=O)Nc1ccc(-c2cnn3c(-c4cccc(NC(=O)c5cccc(C(F)(F)F)c5)c4)ccnc23)cc1`, the IC50 in [3] worked out at 34 nM; in series [1], 770 nM.
For `O=C(Nc1ccc(F)c(-c2ccnc3c(-c4cn[nH]c4)cnn23)c1)c1cccc(C(F)(F)F)c1`, the IC50 in series [3] was determined as 18 nM; in [1] it was 2800 nM.
Consider `CN1CCN(Cc2ccc(-c3cnn4c(-c5cccc(NC(=O)c6cccc(C(F)(F)F)c6)c5)ccnc34)cc2)CC1`, for which the IC50 turned out to be 38 nM in [3] and 700 nM in series [1]. The compound also showed a half-life in the series “in vitro” of 3 min.
Turning to `O=C(Nc1cccc(-c2ccnc3c(-c4coc(CN5CCCC5)c4)cnn23)c1)c1cccc(C(F)(F)F)c1`, the results for the IC50 (in [1]; in the series on WM-266-4 (Homo sapiens) [2]) were 2200 nM and 3200 nM, respectively.
The compound `CN(C)CCc1cccc(-c2cnn3c(-c4cccc(NC(=O)c5cccc(C(F)(F)F)c5)c4)ccnc23)c1` gave an IC50 in [1] of 650 nM.
Turning to `NC(=O)c1cccc(-c2cnn3c(-c4cccc(NC(=O)c5cccc(C(F)(F)F)c5)c4)ccnc23)c1`, the IC50 stood at 3700 nM in the series on WM-266-4 (Homo sapiens) [4] and 3200 nM in series [1].
`O=C(Nc1cccc(-c2ccnc3c(-c4cnc(N5CCOCC5)nc4)cnn23)c1)c1cccc(C(F)(F)F)c1`: the IC50 in [3] was found to be 941 nM.
In turn, `CN(C)CCNc1ccc(-c2cnn3c(-c4cccc(NC(=O)c5cccc(C(F)(F)F)c5)c4)ccnc23)cn1` registered an IC50 in [1] of 460 nM.
As for `Nc1ccc(-c2cnn3c(-c4cccc(NC(=O)c5cccc(C(F)(F)F)c5)c4)ccnc23)cn1`, the IC50 turned out to be 2400 nM in [1] and 3400 nM in the series with WM-266-4 (Homo sapiens) [2].
As for `COCCOCC(=O)Nc1ccc(-c2cnn3c(-c4cccc(NC(=O)c5cccc(C(F)(F)F)c5)c4)ccnc23)cc1`, the IC50 in series [3] was 139 nM; in series [1], 3900 nM; with WM-266-4 (Homo sapiens) [2], above 10000 nM.
With `CN(C)CC(=O)Nc1cccc(-c2cnn3c(-c4cccc(NC(=O)c5cccc(C(F)(F)F)c5)c4)ccnc23)c1`, in [1], it took 800 nM to reach half-maximal inhibition (IC50).
`CCN1CCN(Cc2cc(-c3cnn4c(-c5cccc(NC(=O)c6cccc(C(F)(F)F)c6)c5)ccnc34)co2)CC1`: the values for the IC50 (in series [3]; in series [1]; in the series on WM-266-4 (Homo sapiens) [2]) were 219 nM, 1700 nM and 2900 nM, respectively.
As for `CN1CCN(c2ccc(-c3cnn4c(-c5cc(NC(=O)c6cccc(C(F)(F)F)c6)ccc5F)ccnc34)cn2)CC1`, the IC50 was 30 nM in series [3] and 630 nM in [1].
For `O=C(Nc1cccc(-c2ccnc3c(-c4cccnc4)cnn23)c1)c1cccc(C(F)(F)F)c1`, the IC50 in series [3] came out at 113 nM.
Take `CN(C)CCc1ccccc1-c1cnn2c(-c3cccc(NC(=O)c4cccc(C(F)(F)F)c4)c3)ccnc12`: in series [1], half-maximal inhibition (IC50) required 840 nM.
On to `CN(C)Cc1ccc(-c2cnn3c(-c4cccc(NC(=O)c5cccc(C(F)(F)F)c5)c4)ccnc23)cc1`, for which the IC50 in series [5], in series [6], in [7], in series [8], in series [9] and in series [10] was above 2000 nM throughout. Also, the IC50 in series [11] was above 2000 nM; in series [12], above 2000 nM; in series [13] it was above 2000 nM; in [14], above 2000 nM; in series [15], 822 nM; in [1] it was 780 nM. The IC50 in [16] was 216 nM; in series [17] it was above 2000 nM; in series [18], above 2000 nM. The half-life in the series “in vitro” was found to be 6 min.
`CN(C)CCc1ccc(-c2cnn3c(-c4cccc(NC(=O)c5cccc(C(F)(F)F)c5)c4)ccnc23)cc1`: the IC50 in [1] amounted to 730 nM; with WM-266-4 (Homo sapiens) [2], 740 nM.
In the case of `O=C(Nc1cccc(-c2ccnc3c(-c4ccc(CN5CCCC5)cc4)cnn23)c1)c1cccc(C(F)(F)F)c1`, the figures for the IC50 in series [3] and in series [1] were 20 nM and 650 nM, respectively. For the same compound, the half-life in “in vitro” worked out at 27 min.
In turn, `CN1CCN(CCCC#Cc2cnn3c(-c4cccc(NC(=O)c5cccc(C(F)(F)F)c5)c4)ccnc23)CC1` had a half-life in the series “in vitro” of 3 min. For the same compound, the IC50 is 2600 nM in [1] and 1400 nM in the series on WM-266-4 (Homo sapiens) [2].
As to `O=C(Nc1cccc(-c2ccnc3c(-c4cn[nH]c4)cnn23)c1)c1cccc(C(F)(F)F)c1`, the IC50 in series [1] is 2800 nM.
`O=C(Nc1cccc(-c2ccnc3c(C#CCCCN4CCOCC4)cnn23)c1)c1cccc(C(F)(F)F)c1` had a half-life in “in vitro” above 30 min. The IC50 in [1] turned out to be 3500 nM; with WM-266-4 (Homo sapiens) [2] it was 5500 nM.
Regarding `CN1CCN(c2ccc(-c3cnn4c(-c5cccc(NC(=O)c6cccc(C(F)(F)F)c6)c5)ccnc34)cn2)CC1`, the IC50 in series [3] was found to be 44 nM; in [1] it was 310 nM.
On the same counts, the results for `O=C(Nc1ccc(Cl)c(-c2ccnc3c(-c4cn[nH]c4)cnn23)c1)c1cccc(C(F)(F)F)c1` are 42 nM and 2900 nM.
For `CN(C)c1ccc(-c2cnn3c(-c4cccc(NC(=O)c5cccc(C(F)(F)F)c5)c4)ccnc23)cc1`, the values for the IC50 (in series [3]; in the series with WM-266-4 (Homo sapiens) [2]) were 308 nM and above 10000 nM, respectively.

One may read the half-life as the time needed for the level to fall by half in the phase considered. For orientation: IC50 means the midpoint of a concentration-inhibition curve.
